Measurements: patent publication US20250228863A1, “Methods and Products to Screen and Treat Glioblastoma Multiforme and Other Cancers, Including Breast Cancers, Using A Combination of PI3KINASE Inhibitors With Checkpoint Inhibitors” (GLOBAL CANCER TECHNOLOGY, INC., priority 2022, published 2025)

Tests used:
MCF7 SEMA7A OE cells = assay: MCF7 EV and SEMA7A over-expressing cells treated with endocrine therapy and/or PI3K inhibitor; format: cell-based, human
Method: Cell Culture Protocol: Cells were plated in 10 cm plates at ˜1 million cells/plate and incubated overnight to allow adherence. Cell lines and media that were used included McCoy's 5a modified media for HER2+ breast cancer cell line SKBR3 cells, and for MDA-MB-231, MDA-MB-468, MCF-7, and HS578t, culture medium was DMEM. Cells were then treated with the PI3K inhibitor: 0 uM (control), 1 uM, or 10 uM. Treated cells incubated for ˜72 hours. After incubation, cells were imaged, then harvested with 0.25% trypsin/EDTA and counted using trypan blue viability stain with Nexcelom Cellometer Mini. The MDA-MB-231 cell line is an epithelial, human breast cancer cell line that was established from a pleural effusion of a patient with metastatic mammary adenocarcinoma.
FIG. 13A, FIG. 13B, and FIG. 13C. […] MCF7EV and SEMA7A OE cells were treated for 48 hours with A) fulvestrant (7.5 nM), B} Alpelisib (1 uM), or C) the combination.
FIG. 14A, FIG. 14B, FIG. 14C, FIG. 14D, and FIG. 14E. SEMA7A-expressing cells are sensitive to both Alpelisib and a novel PI3K inhibitor (GCT.BR.1) FIG. 14A) MCF7 cells treated with vehicle, 1 uM Alpelisib and 1 uM GCT.BR.1. Scalebar=10 microns. FIG. 14B) Quantification of A. FIG. 14C) MCF7 S7 OE spheroids in suspension were treated with vehicle (DMSO), 1 uM Alpelisib or 0.5 uM GCT and stained with Calcein green viability dye after 48 h. […]

[1] = orally available; literature statement; cited from earlier work

Compound: C[C@]12CC[C@@H]3c4ccc(O)cc4C[C@@H](CCCCCCCCC[S+]([O-])CCCC(F)(F)C(F)(F)F)[C@H]3[C@@H]1CC[C@@H]2O (stereo partly drawn) [fulvestrant]
- response of SEMA7A over-expressing cells to treatment (MCF7 SEMA7A OE cells; 48 hours, fulvestrant 7.5 nM, Alpelisib 1 uM, FIG. 13): respond poorly

Compound: CC1(C)OCCn2c1nc1c(N3CCOCC3)nc(-c3cnc(N)nc3)nc12 [GDC 0084]
- blood brain barrier permeation [1]: can permeate the blood brain barrier

Compound: Cc1nc(NC(=O)N2CCC[C@H]2C(N)=O)sc1-c1ccnc(C(C)(C)C(F)(F)F)c1 [Alpelisib]
- sensitivity of SEMA7A-expressing cells (MCF7 SEMA7A OE cells; MCF7, 1 uM, FIG. 14): sensitive
